Reference: publication PMC10363032 (Cancer Chemotherapy and Pharmacology, 2023)

Experiment: plasma pharmacokinetics of probe cocktail substrates and metabolites with and without adavosertib in patients
Conditions: for Vd/F: Mean Vz/F, L (SD); for increase in Cmax on adavosertib co-administration / increase in exposure (AUC0–12) on adavosertib co-administration / increase in exposure (AUC0–t) on adavosertib co-administration: adavosertib 225 mg bid vs cocktail alone; for Point estimates of the geometric LS mean ratios S + AD/S, % (90% CI): AUC / Point estimates of the geometric LS mean ratios S + AD/S, % (90% CI): AUC0–t / Point estimates of the geometric LS mean ratios S + AD/S, % (90% CI): Cmax: substrate + adavosertib 225 mg bid vs substrate alone
Description: This sampling period was selected based on the half-lives of the probe substrates.
Plasma concentrations for caffeine, paraxanthine, omeprazole, 5-HO, midazolam, and 1ʹ-HM were all determined by high-performance liquid chromatography–tandem mass spectrometry (HPLC–MS/MS) at Labcorp Bioanalytical Laboratories (Madison, WI, USA).
Plasma concentrations of caffeine and paraxanthine collected with K2EDTA as anticoagulant were determined by HPLC–MS/MS detection simultaneously. The standard curves of caffeine and paraxanthine both ranged from 25.0 to 20,000 ng/mL. […] The lower limit of quantification (LLOQ) was 25.0 ng/mL for caffeine and paraxanthine.
Plasma concentrations of omeprazole and 5-HO were collected with lithium heparin as anticoagulant and were determined by HPLC–MS/MS detection simultaneously. […] The LLOQ was 20.0 nM for omeprazole and 5-HO.
Plasma concentrations of midazolam and 1ʹ-HM were collected with K2EDTA as anticoagulant and were determined by HPLC–MS/MS detection simultaneously. The standard curves of midazolam and 1ʹ-HM both ranged from 0.100 to 100 ng/mL. […] The LLOQ was 0.1 ng/mL for midazolam and 1ʹ-HM.
PK parameters were derived using non-compartmental methods with Phoenix® WinNonlin® version 6.4 (Certara, LP, Princeton, NJ, USA). All descriptive and inferential statistical computations were performed using SAS® version 9.1 (SAS Institute, Cary, NC, USA).

[1] = − AD (cocktail alone, period 1)

COc1ccc2nc([S+]([O-])Cc3ncc(CO)c(OC)c3C)[nH]c2c1 (stereo not shown) [5-HO, 5-hydroxyomeprazole]
Mean MR (metabolic ratio in relation to parent compound), AUC (human, in vivo): 0.50
Mean MR (metabolic ratio in relation to parent compound), AUC0–t (human, in vivo): 0.73
Mean MR (metabolic ratio in relation to parent compound), Cmax (human, in vivo): 0.53
Mean t½ h (SD) (human, in vivo): 2.7 (1.7) h
Median tmax, h (range) (human, in vivo): 3.0 (0.7–6.0) h

COc1ccc2[nH]c([S+]([O-])Cc3ncc(C)c(OC)c3C)nc2c1 (stereo not shown) [Omeprazole, omeprazole, reference compound]
Mean CL/F, L/h (SD) (human, in vivo): 13.3 (10.5) L/h
Median tmax, h (range) (human, in vivo): 3.0 (0.7–6.0) h
Vd/F (human, in vivo): 28.3 L
half-life (human, in vivo, Mean t½ h (SD)): 2 h

Cn1c(=O)c2c(ncn2C)n(C)c1=O [Caffeine, caffeine, reference compound]
Mean CL/F, L/h (SD) (human, in vivo): 5.7 (2.5) L/h
Mean t½ h (SD) (human, in vivo): 6.4 (3.8) h
Median tmax, h (range) (human, in vivo): 0.5 (0.3–3.0) h
Vd/F (human, in vivo): 39.3 L

OCc1ncc2n1-c1ccc(Cl)cc1C(c1ccccc1F)=NC2 [1ʹ-HM, 1ʹ-hydroxymidazolam]
increase in Cmax on adavosertib co-administration: 33%
increase in exposure (AUC0–12) on adavosertib co-administration: 54%
increase in exposure (AUC0–t) on adavosertib co-administration: 58%
Point estimates of the geometric LS mean ratios S + AD/S, % (90% CI): AUC: 153.5 (131.0–179.8) %
Point estimates of the geometric LS mean ratios S + AD/S, % (90% CI): AUC0–t: 158.2 (139.1–180.0) %
Point estimates of the geometric LS mean ratios S + AD/S, % (90% CI): Cmax: 133.4 (106.5–167.1) %
Mean MR (metabolic ratio in relation to parent compound), AUC (− AD): 0.41
Mean MR (metabolic ratio in relation to parent compound), AUC0–t (− AD): 0.43
Mean MR (metabolic ratio in relation to parent compound), Cmax (− AD): 0.47
Mean t½ h (SD) [1]: 7.2 (6.1) h
Median tmax, h (range) [1]: 0.5 (0.3–2.1) h

Cn1c(=O)[nH]c2ncn(C)c2c1=O [Paraxanthine, paraxanthine]
Mean MR (metabolic ratio in relation to parent compound), AUC (human, in vivo): 0.65
Mean MR (metabolic ratio in relation to parent compound), AUC0–t (human, in vivo): 0.54
Mean MR (metabolic ratio in relation to parent compound), Cmax (human, in vivo): 0.23
Median tmax, h (range) (human, in vivo): 8.0 (4.0–11.8) h
half-life (human, in vivo, Mean t½ h (SD)): 7 h

Cc1ncc2n1-c1ccc(Cl)cc1C(c1ccccc1F)=NC2 [Midazolam, midazolam, reference compound]
increase in Cmax on adavosertib co-administration: 39%
increase in exposure (AUC0–12) on adavosertib co-administration: 55%
increase in exposure (AUC0–t) on adavosertib co-administration: 55%
half-life (human, in vivo): 5.5 h
Vd/F (human, in vivo, + AD (adavosertib 225 mg bid, period 2)): 364 L
Vd/F (human, in vivo, − AD (cocktail alone, period 1)): 410 L
Point estimates of the geometric LS mean ratios S + AD/S, % (90% CI): AUC: 155.3 (138.6–173.9) %
Point estimates of the geometric LS mean ratios S + AD/S, % (90% CI): AUC0–t: 155.2 (140.5–171.5) %
Point estimates of the geometric LS mean ratios S + AD/S, % (90% CI): Cmax: 138.5 (118.9–161.3) %
Mean CL/F, L/h (SD) [1]: 59.0 (34.3) L/h
Median tmax, h (range) [1]: 0.5 (0.2–1.0) h
